Measured values taken from patent publication US20160206688A1, “METHODS FOR TREATING BACTEREMIA AND OSTEOMYELITIS USING ORITAVANCIN” (THE MEDICINES COMPANY, priority 2013, published 2016).
In brackets after ≈: the same amount, converted by molar mass.

Experiments:
E. faecalis [1] = assay: Broth microdilution MIC, European bacteraemia isolates 2010-2012; format: cell-based, Enterococcus faecalis
Description: (§1) A total of 2,904 clinical strains responsible for documented bacteremia among unique hospitalized patients in 38 hospitals in 11 European Union countries. Israel, Russia, Turkey and Ukraine were included in this study (2010-2012). Isolates were submitted to a central monitoring laboratory (JMI Laboratories, North Liberty. Iowa. USA), following previously established protocols. Bacterial species identification was performed by using an automated system (Vitek®2; bioMèrieux, Hazelwood, Mo., USA) or conventional biochemical algorithms, as required.
(§2) Isolates were tested for susceptibility by broth microdilution methods following the Clinical and Laboratory Standards Institute (CLSI; M07-A9, 2012) document. Susceptibility testing was performed in cation-adjusted Mueller-Hinton broth (CA-MHB) using dry-form panels manufactured by Thermo Fisher Scientific, formerly TREK Diagnostics Systems/Sensititre (Cleveland. Ohio, USA). These panels provide results equivalent to the CLSI-approved broth microdilution method supplemented with 0.002% polysorbate-80.
(§3) Quality assurance was performed by concurrent testing of CLSI-recommended (M100-S23, 2013) strains: E. faecalis ATCC 29212 and S. aureus ATCC 29213. Interpretation of comparator MIC results was in accordance with published CLSI (M100-S23) and European Committee on Antimicrobial Susceptibility Testing (EUCAST, 2013) criteria.

E. faecium [2] = assay: as above; format: cell-based, Enterococcus faecium; conditions: for % Resistant, CLSI / % Susceptible, CLSI: CLSI M100-S23 breakpoints; for % Resistant, EUCAST / % Susceptible, EUCAST: EUCAST 2013 breakpoints; for MIC50 / MIC90 / MIC Range: Table 2
Description: as §1, §2, §3

S. aureus = assay: as above; format: cell-based; conditions: S. aureus Methicillin-resistant (1,708)
Description: as §1, §2, §3

[3] = test system: Coagulase-negative staphylococci; assay: as above; format: cell-based, coagulase-negative staphylococci (CoNS); conditions: Coagulase-negative staphylococci (646)
Description: as §1, §2, §3

MDR SA = assay: Microdilution MIC against MDR SA by specimen source; format: cell-based, S. aureus
Description: 456 clinical, single-patient, non-consecutive, MDR SA isolates from the known specimen sources collected in 2011-2012 were analyzed. MDR was defined as resistant to ≧3 of the following: erythromycin, clindamycin, gentamicin, levofloxacin, and trimethoprim/sulfamethoxazole. 382 were MRSA and 74 were MSSA. MICs were determined by microdilution testing in accordance with CLSI M7 and M100 guidelines. Although other comparator drugs were tested, this analysis focuses on the activities of ORI, VAN, DAP, and LZD.

S. agalactiae = assay: Broth microdilution MIC, US isolates 2011-2012, blood vs non-blood; format: cell-based
Description: (§4) 527 E. faecalis, 176 E. faecium, and 790 BHS (335 S. pyogenes and 455 S. agalactiae) clinical, single patient, non-consecutive isolates were collected in 2011-2012 from 46 sites geographically distributed across the United States. The MICs were determined by broth microdilution testing performed in accordance with CLSI M7 and M100 guidelines. From the resulting database, this analysis focused on the activities of ORI, vancomycin (VAN), daptomycin (DAP), and linezolid (LZD) according to specimen source.

E. faecium [4] = assay: as above; format: cell-based
Description: as §4

E. faecalis [5] = assay: as above; format: cell-based
Description: as §4

S. pyogenes = assay: as above; format: cell-based
Description: as §4

VRE = assay: Susceptibility of the subject's blood culture isolate (treatment history); format: cell-based
Source text: 11, 2013; the plan was for at least 8 weeks of antibiotic therapy.

[6] = E. faecalis (445), CLSI M100-S23 breakpoints
[7] = E. faecalis (445), EUCAST 2013 breakpoints
[8] = E. faecium Vancomycin-resistant (VanA-phenotype) (153)
[9] = E. faecium Vancomycin-susceptible (257)
[10] = Enterococcus faecium, E. faecium Vancomycin-resistant (VanA-phenotype) (153)
[11] = Enterococcus faecium, E. faecium Vancomycin-susceptible (257)

For `CN[C@H](CC(C)C)C(=O)N[C@H]1C(=O)N[C@@H](CC(N)=O)C(=O)N[C@H]2C(=O)N[C@H]3C(=O)N[C@H](C(=O)N[C@H](C(=O)O)c4cc(O)cc(O)c4-c4cc3ccc4O)[C@H](O)c3ccc(c(Cl)c3)Oc3cc2cc(c3O[C@@H]2O[C@H](CO)[C@@H](O)[C@H](O)[C@H]2O[C@H]2C[C@](C)(N)[C@H](O)[C@H](C)O2)Oc2ccc(cc2Cl)[C@H]1O` [Vancomycin, vancomycin], which “% Resistant, CLSI” value (E. faecalis [1]; [6]) is on record?
The value was 0.9%.

What about the “% Susceptible, CLSI” value (E. faecalis [1]; [6]) of the same compound?
The value was 99.1%.

And the “% Resistant, EUCAST” value (E. faecalis [1]; [7])?
The value was 0.9%.

And the “% Susceptible, EUCAST” value (E. faecalis [1]; [7])?
The value was 99.1%.

What about the “% susceptible” value (E. faecalis [1]; E. faecalis strains, criteria not stated) of the same compound?
The value was 99.1%.

And the MIC50 (E. faecalis [1]; Enterococcus faecalis)?
Its MIC50 is 1 µg/mL (≈ 0.69 µM).

What about the MIC90 (E. faecalis [1]; Enterococcus faecalis) of the same compound?
The MIC90 was 2 µg/mL (≈ 1.38 µM).

And the “% Resistant, CLSI” value (E. faecium [2]; [8])?
The value was 100.0%.

And the “% Susceptible, CLSI” value (E. faecium [2]; [8])?
Its value is 0.0%.

And the “% Resistant, EUCAST” value (E. faecium [2]; [8])?
Its value is 100.0%.

And the “% Susceptible, EUCAST” value (E. faecium [2]; [8])?
Its value is 0.0%.

What about the “% Resistant, CLSI” value (E. faecium [2]; [9]) of the same compound?
Its value is 0.0%.

And the “% Susceptible, CLSI” value (E. faecium [2]; [9])?
The value was 100.0%.

And the “% Resistant, EUCAST” value (E. faecium [2]; [9])?
Its value is 0.0%.

And the “% Susceptible, EUCAST” value (E. faecium [2]; [9])?
The value was 100.0%.

And the MIC50 (E. faecium [2]; [10])?
The MIC50 was over 16 µg/mL.

And the MIC90 (E. faecium [2]; [10])?
The MIC90 was over 16 µg/mL.

What about the MIC50 (E. faecium [2]; [11]) of the same compound?
The MIC50 was 1 µg/mL (≈ 0.69 µM).

And the MIC90 (E. faecium [2]; [11])?
Its MIC90 is 1 µg/mL (≈ 0.69 µM).

What about the MIC (E. faecium [2]; Enterococcus faecium, read-out: MIC values) of the same compound?
Its MIC is over 4 µg/mL.

What about the “MIC Range” value (E. faecium [2]; [8]) of the same compound?
Its value is over 16 µg/mL.

What about the “MIC Range” value (E. faecium [2]; [9]) of the same compound?
The value was 0.5 to 4 µg/mL.

And the “% Resistant, CLSI” value (S. aureus; CLSI M100-S23 breakpoints)?
Its value is 0.0%.

And the “% Susceptible, CLSI” value (S. aureus; CLSI M100-S23 breakpoints)?
The value was 100.0%.

What about the “% Resistant, EUCAST” value (S. aureus; EUCAST 2013 breakpoints) of the same compound?
Its value is 0.0%.

And the “% Susceptible, EUCAST” value (S. aureus; EUCAST 2013 breakpoints)?
The value was 100.0%.

And the MIC50 (S. aureus; Staphylococcus aureus, Table 2)?
Its MIC50 is 1 µg/mL (≈ 0.69 µM).

And the MIC90 (S. aureus; Staphylococcus aureus, Table 2)?
Its MIC90 is 1 µg/mL (≈ 0.69 µM).

What about the “MIC Range” value (S. aureus; Table 2) of the same compound?
Its value is 0.25 to 2 µg/mL.

And the “% Resistant, CLSI” value ([3]; CLSI M100-S23 breakpoints)?
Its value is 0.0%.

What about the MIC50 ([3]; Table 2) of the same compound?
The MIC50 was 2 µg/mL (≈ 1.38 µM).

What about the MIC90 ([3]; Table 2) of the same compound?
Its MIC90 is 2 µg/mL (≈ 1.38 µM).

What about the “MIC Range” value ([3]; Table 2) of the same compound?
Its value is 0.25 to 4 µg/mL.

And the MIC50 (MDR SA; Blood, n = 108)?
The MIC50 was 0.5 µg/mL (≈ 0.345 µM).

And the MIC90 (MDR SA; Blood, n = 108)?
The MIC90 was 1 µg/mL (≈ 0.69 µM).

What about the Mode (MIC) (MDR SA; Blood, n = 108) of the same compound?
The Mode (MIC) was 0.5 µg/mL.

And the “Range (MIC)” value (MDR SA; Blood, n = 108, in µg/mL)?
The value was 0.5-2.

What about the MIC50 (MDR SA; Respiratory, N = 157) of the same compound?
The MIC50 was 0.5 µg/mL (≈ 0.345 µM).

And the MIC90 (MDR SA; Respiratory, N = 157)?
Its MIC90 is 1 µg/mL (≈ 0.69 µM).

And the Mode (MIC) (MDR SA; Respiratory, N = 157)?
The Mode (MIC) was 0.5 µg/mL.

And the “Range (MIC)” value (MDR SA; Respiratory, N = 157)?
The value was “≦0.25-1”.

And the MIC50 (MDR SA; Skin/Wound, N = 191)?
The MIC50 was 0.5 µg/mL (≈ 0.345 µM).

What about the MIC90 (MDR SA; Skin/Wound, N = 191) of the same compound?
The MIC90 was 1 µg/mL (≈ 0.69 µM).

And the Mode (MIC) (MDR SA; Skin/Wound, N = 191)?
The Mode (MIC) was 0.5 µg/mL.

And the “Range (MIC)” value (MDR SA; Skin/Wound, N = 191)?
The value was “≦0.25-1”.

What about the MIC90 (S. agalactiae; Blood, N 100) of the same compound?
Its MIC90 is 0.5 µg/mL (≈ 0.345 µM).

And the MIC90 (S. agalactiae; Non-Blood, N 355)?
The MIC90 was 0.5 µg/mL (≈ 0.345 µM).

And the MIC90 (E. faecium [4]; Blood, N 84)?
The MIC90 was over 32 µg/mL.

What about the MIC90 (E. faecium [4]; Non-Blood, N 92) of the same compound?
The MIC90 was over 32 µg/mL.

What about the MIC90 (E. faecalis [5]; Blood, N 116) of the same compound?
The MIC90 was 2 µg/mL (≈ 1.38 µM).

And the MIC90 (E. faecalis [5]; Non-Blood, N 411)?
The MIC90 was 2 µg/mL (≈ 1.38 µM).

What about the MIC90 (S. pyogenes; Blood, N 53) of the same compound?
The MIC90 was 0.25 µg/mL (≈ 0.173 µM).

What about the MIC90 (S. pyogenes; Non-Blood, N 282) of the same compound?
Its MIC90 is 0.25 µg/mL (≈ 0.173 µM).

With `CCCCCCCCCCNCCN[C@@]1(C)C[C@H](O[C@H]2[C@H](Oc3c4cc5cc3Oc3ccc(cc3Cl)[C@@H](O)[C@@H](NC(=O)[C@@H](CC(C)C)NC)C(=O)N[C@@H](CC(N)=O)C(=O)N[C@H]5C(=O)N[C@H]3C(=O)N[C@H](C(=O)N[C@H](C(=O)O)c5cc(O)c(CNCP(=O)(O)O)c(O)c5-c5cc3ccc5O)[C@H](O)c3ccc(c(Cl)c3)O4)O[C@H](CO)[C@@H](O)[C@@H]2O)O[C@@H](C)[C@H]1O` [televancin] as the compound, how does the susceptibility (VRE; 2012 December) read?
Its susceptibility is “resistant”.

With `CN(C)c1cc(NC(=O)CNC(C)(C)C)c(O)c2c1C[C@H]1C[C@H]3[C@H](N(C)C)C(O)=C(C(N)=O)C(=O)[C@@]3(O)C(O)=C1C2=O` [tigecycline] as the compound, how does the susceptibility (VRE; 2012 July) read?
Its susceptibility is “susceptible”.
